According to US5030760A, “Tetrahydrophthalimides, and their production and use” (Sumitomo Chemical Company, Ltd., priority 1981, dated 1991):

Tests used:
large crabgrass = experiment: Test Example 5, spraying over the top, herbicidal activity; assay type: in vivo, Digitaria sanguinalis; conditions: sprayed over the top, 20 days; further: ranges in brackets are in %
Protocol: (§1) The application of the tetrahydrophthalimides (I) as herbicides will be illustratively shown in the following Examples wherein the phytotoxicity to cultivated plants and the herbicidal activity on weeds were evaluated as follows: the aerial parts of the test plants were cut off and weighed (fresh weight); the percentage of the fresh weight of the treated plant to that of the untreated plant was calculated with the latter fresh weight taken as 100; and the crop damage and the herbicidal activity were evaluated by the standard given in the table below. The rating values of phytotoxicity, 0 and 1, and those of herbicidal effect, 5 and 4, are generally regarded as satisfactory to protect cultivated plants and control weeds, respectively. The rating values in the paddy field test alone were calculated from the dry weight of the test plants.
(§2) Plastic trays (35 cm×25 cm×15 cm) were filled with upland field soil, and the seeds of tall morningglory, velvetleaf, jimsonweed, sicklepod, hemp sesbania, prickly side, Johnsongrass, green foxtail and large crabgrass and the seeds of soybean were sown therein. A designed amount of the test compound formulated into a wettable powder according to Preparation Example 1 and dispersed in water was sprayed over the top by means of a small hand sprayer at a spray volume of 5 liters per are. After the spraying, the test plants were grown in greenhouse for 20 days, and phytotoxicity and herbicidal activity were examined.

barnyardgrass [1] = experiment: Test Example 1, foliar treatment, herbicidal activity; assay type: in vivo, Echinochloa crus-galli; conditions: 3 weeks; further: ranges in brackets are in %
Protocol: as §1
(§3) Plastic beakers (diameter, 10 cm; height, 10 cm) were filled with upland field soil, and the seeds of corn, barnyardgrass, wild oat, wild mustard and velvetleaf were separately sown in the beakers and grown for 2 weeks in the greenhouse. A designed amount of the test compound was sprayed to the foliage of the test plants by means of a small hand sprayer. After the spraying, the test plants were further grown for 3 weeks in the greenhouse, and herbicidal activity was examined. In this foliar treatment, the test compounds were formulated into an emulsifiable concentrate according to Preparation Example 2 and applied at a spray volume of 5 liters per are by dispersing it in water with the addition of a spreading agent.

green foxtail [2] = experiment: Test Example 4, pre-emergence treatment, herbicidal activity; assay type: in vivo, Setaria viridis; conditions: 20 days; further: ranges in brackets are in %
Protocol: as §1
(§4) Plastic beakers (diameter, 10 cm; height, 10 cm) were filled with upland field soil, and the seeds of corn, cotton and soybean and the seeds of morningglory, velvetleaf, Johnsongrass and green foxtail were separately sown in the beakers. A designed amount of the test compound was sprayed over the top by means of a small hand sprayer. After the spraying, the test plants were grown for 20 days in the greenhouse, and herbicidal activity and phytotoxicity were examined. In this pre-emergence treatment, the test compounds were formulated into an emulsifiable concentrate according to Preparation Example 2 and applied at a spray volume of 5 liters per are by dispersing it in water with the addition of a spreading agent.

velvetleaf [3] = experiment: Test Example 1, foliar treatment, herbicidal activity; assay type: in vivo, Abutilon theophrasti; conditions: 3 weeks; further: ranges in brackets are in %
Protocol: as §1, §3

Johnsongrass [4] = experiment: Test Example 4, pre-emergence treatment, herbicidal activity; assay type: in vivo, Sorghum halepense; conditions: 20 days; further: ranges in brackets are in %
Protocol: as §1, §4

corn [5] = experiment: Test Example 1, foliar treatment, phytotoxicity to corn; assay type: in vivo; conditions: 3 weeks; further: ranges in brackets are in %
Protocol: as §1, §3

hemp sesbania = experiment: Test Example 5, spraying over the top, herbicidal activity; assay type: in vivo, Sesbania exaltator; conditions: sprayed over the top, 20 days; further: ranges in brackets are in %
Protocol: as §1, §2

tall morningglory [6] = experiment: as above; assay type: in vivo, Ipomoea purpurea; conditions: sprayed over the top, 20 days
Protocol: as §1, §2

velvetleaf [7] = experiment: as above; assay type: in vivo, Abutilon theophrasti; conditions: sprayed over the top, 20 days
Protocol: as §1, §2

soybean [8] = experiment: Test Example 4, pre-emergence treatment, phytotoxicity to soybean; assay type: in vivo; conditions: 20 days; further: ranges in brackets are in %
Protocol: as §1, §4

Johnsongrass [9] = experiment: Test Example 5, spraying over the top, herbicidal activity; assay type: in vivo, Sorghum halepense; conditions: sprayed over the top, 20 days; further: ranges in brackets are in %
Protocol: as §1, §2

sicklepod = experiment: as above; assay type: in vivo, Cassia obtusifolia; conditions: sprayed over the top, 20 days; further: ranges in brackets are in %
Protocol: as §1, §2

green foxtail [10] = experiment: as above; assay type: in vivo, Setaria viridis; conditions: sprayed over the top, 20 days
Protocol: as §1, §2

soybean [11] = experiment: Test Example 5, spraying over the top, phytotoxicity to soybean; assay type: in vivo; conditions: sprayed over the top, 20 days; further: ranges in brackets are in %
Protocol: as §1, §2

prickly sida = experiment: Test Example 5, spraying over the top, herbicidal activity; assay type: in vivo, Sida spinosa; conditions: sprayed over the top, 20 days; further: ranges in brackets are in %
Protocol: as §1, §2

jimsonweed = experiment: as above; assay type: in vivo, Datura stramonium; conditions: sprayed over the top, 20 days; further: ranges in brackets are in %
Protocol: as §1, §2

wild mustard = experiment: Test Example 1, foliar treatment, herbicidal activity; assay type: in vivo, Brassica kaber; conditions: 3 weeks
Protocol: as §1, §3

cotton = experiment: Test Example 4, pre-emergence treatment, phytotoxicity to cotton; assay type: in vivo; conditions: 2.5 g/are, 20 days; further: ranges in brackets are in %
Protocol: as §1, §4

morningglory = experiment: Test Example 4, pre-emergence treatment, herbicidal activity; assay type: in vivo; conditions: 10 g/are, 20 days; further: ranges in brackets are in %
Protocol: as §1, §4

wild oat = experiment: Test Example 1, foliar treatment, herbicidal activity; assay type: in vivo, Avena fatua; conditions: 3 weeks; further: ranges in brackets are in %
Protocol: as §1, §3

corn [12] = experiment: Test Example 4, pre-emergence treatment, phytotoxicity to corn; assay type: in vivo; conditions: 20 days; further: ranges in brackets are in %
Protocol: as §1, §4

velvetleaf [13] = experiment: Test Example 4, pre-emergence treatment, herbicidal activity; assay type: in vivo, Abutilon theophrasti; conditions: 20 days; further: ranges in brackets are in %
Protocol: as §1, §4

arrowhead = experiment: Test Example 7, flooded paddy pot dripping, herbicidal activity; assay type: in vivo, Sagittaria pygmaea; conditions: 3 weeks; further: ranges in brackets are in %
Protocol: as §1
(§5) Wagner's pots (1/5000 are) were filled with paddy field soil and water was poured therein to make a flooded condition. Rice seedlings of the 3-leaf stage were transplanted and tubers of slender spikerush and arrowhead and the seeds of barnyardgrass, monochoria and broad-leaved weed were sowed therein and grown for 5 days. When germination occurs, a designed amount of the test compound formulated into an emulsifiable concentrate according to Preparation Example 2 was applied to the pots by dripping. The test plants were grown for a further 3 weeks, and herbicidal activity and phytotoxicity were examined. The herbicidal activity was evaluated in figures ranging from 0 to 5. The phytotoxicity to the crop plants was also indicated on the same standard as that of the herbicidal activity.

common purslane = experiment: Test Example 2, field foliar treatment, herbicidal activity; assay type: in vivo, Portulaca oleracea; conditions: 3 weeks; further: ranges in brackets are in %
Protocol: as §1
(§6) Seeds of corn and broad-leaved weeds such as cocklebur, common purslane and tall morningglory were sown in the field as previously laid up in ridges, each ridge having an upper width of 1 m. At the time when the corn grew up to the 6-leaf stage and the broad-leaved weeds up to 2 to 5-leaf stages, a designed amount of the test compound formulated into an emulsifiable concentrate according to Preparation Example 2 and dispersed in water was sprayed to the foliage of the test plants with three replications over the top by means of a small hand sprayer at a spray volume of 5 liters per are. After cultivation for 3 weeks, herbicidal activity and phytotoxicity were examined.

corn [14] = experiment: Test Example 2, field foliar treatment, phytotoxicity to corn; assay type: in vivo; conditions: 3 weeks; further: ranges in brackets are in %
Protocol: as §1, §6

broad-leaved weed = experiment: Test Example 7, flooded paddy pot dripping, herbicidal activity; assay type: in vivo; conditions: 3 weeks; further: ranges in brackets are in %
Protocol: as §1, §5

slender spikerush = experiment: as above; assay type: in vivo, Eleocharis acicularis; conditions: 3 weeks; further: ranges in brackets are in %
Protocol: as §1, §5

rice plant = experiment: Test Example 7, flooded paddy pot dripping, phytotoxicity to rice plant; assay type: in vivo; conditions: 3 weeks; further: ranges in brackets are in %
Protocol: as §1, §5

tall morningglory [15] = experiment: Test Example 2, field foliar treatment, herbicidal activity; assay type: in vivo, Ipomoea purpurea; conditions: 3 weeks; further: ranges in brackets are in %
Protocol: as §1, §6

cocklebur = experiment: as above; assay type: in vivo, Xanthium pennsylvanicum; conditions: 3 weeks; further: ranges in brackets are in %
Protocol: as §1, §6

barnyardgrass [16] = experiment: Test Example 7, flooded paddy pot dripping, herbicidal activity; assay type: in vivo, Echinochloa crus-galli; conditions: 3 weeks; further: ranges in brackets are in %
Protocol: as §1, §5

monochoria = experiment: as above; assay type: in vivo, Monochoria vaginalis; conditions: 3 weeks; further: ranges in brackets are in %
Protocol: as §1, §5
Wherever Herbicidal activity, Green foxtail is given: ranges in brackets are in %.
Wherever Herbicidal activity, Tall morningglory is given: ranges in brackets are in %.
Wherever Herbicidal activity, Velvetleaf is given: ranges in brackets are in %.

COc1cc(N2C(=O)C3=C(CCCC3)C2=O)c(F)cc1Br [Compound No. 12, N-(4-bromo-2-fluoro-5-methoxyphenyl)-3,4,5,6-tetrahydrophthalimide]
5 (0): Herbicidal activity, Large crabgrass (large crabgrass; 3 g/are) | Herbicidal activity, Large crabgrass (large crabgrass; 9 g/are) | Herbicidal activity, Barnyardgrass (barnyardgrass [1]; 5 g/are) | Herbicidal activity, Green foxtail (green foxtail [2]; 2.5 g/are) | Herbicidal activity, Green foxtail (green foxtail [2]; 10 g/are) | Herbicidal activity, Velvetleaf (velvetleaf [3]; 1.25 g/are) | Herbicidal activity, Velvetleaf (velvetleaf [3]; 5 g/are) | Herbicidal activity, Johnsongrass (Johnsongrass [4]; 2.5 g/are) | Herbicidal activity, Johnsongrass (Johnsongrass [4]; 10 g/are) | Herbicidal activity, Hemp sesbania (hemp sesbania; 9 g/are) | Herbicidal activity, Tall morningglory (tall morningglory [6]; 9 g/are) | Herbicidal activity, Velvetleaf (velvetleaf [7]; 3 g/are) | Herbicidal activity, Velvetleaf (velvetleaf [7]; 9 g/are) | Herbicidal activity, Johnsongrass (Johnsongrass [9]; 3 g/are) | Herbicidal activity, Johnsongrass (Johnsongrass [9]; 9 g/are) | Herbicidal activity, Sicklepod (sicklepod; 9 g/are) | Herbicidal activity, Green foxtail (green foxtail [10]; 3 g/are) | Herbicidal activity, Green foxtail (green foxtail [10]; 9 g/are) | Herbicidal activity, Prickly sida (prickly sida; 3 g/are) | Herbicidal activity, Prickly sida (prickly sida; 9 g/are) | Herbicidal activity, Jimsonweed (jimsonweed; 3 g/are) | Herbicidal activity, Jimsonweed (jimsonweed; 9 g/are) | Herbicidal activity, Wild mustard (wild mustard; 5 g/are) | Herbicidal activity, Morningglory (morningglory) | Herbicidal activity, Wild cat (wild oat; 5 g/are) | Herbicidal activity, Velvetleaf (velvetleaf [13]; 2.5 g/are) | Herbicidal activity, Velvetleaf (velvetleaf [13]; 10 g/are)
1 (41-60): Herbicidal activity, Wild cat (wild oat; 1.25 g/are)
0 (100): Phytotoxicity, Soybean (soybean [8]; 2.5 g/are) | Phytotoxicity, Soybean (soybean [8]; 10 g/are) | Phytotoxicity, Soybean (soybean [11]; 3 g/are) | Phytotoxicity, Soybean (soybean [11]; 9 g/are) | Phytotoxicity, Cotton (cotton) | Phytotoxicity, Corn (corn [12]; 2.5 g/are)
4 (1-10): Herbicidal activity, Hemp sesbania (hemp sesbania; 3 g/are) | Herbicidal activity, Tall morningglory (tall morningglory [6]; 3 g/are) | Herbicidal activity, Sicklepod (sicklepod; 3 g/are) | Herbicidal activity, Wild mustard (wild mustard; 1.25 g/are)
2 (21-40): Herbicidal activity, Barnyardgrass (barnyardgrass [1]; 1.25 g/are)
1 (90-99): Phytotoxicity, Corn (corn [5]; 1.25 g/are) | Phytotoxicity, Corn (corn [5]; 5 g/are) | Phytotoxicity, Corn (corn [12]; 10 g/are)

CCCCCOc1cc(N2C(=O)C3=C(CCCC3)C2=O)c(F)cc1Cl [Compound No. 7, N-(4-chloro-2-fluoro-5-n-amyloxyphenyl)-3,4,5,6-terahydrophthalimide]
4 (70-89): Herbicidal activity, Allowhead (arrowhead; 2.5 g/are) | Herbicidal activity, Slender spikerush (slender spikerush; 1.25 g/are) | Herbicidal activity, Barnyardgrass (barnyardgrass [16]; 1.25 g/are)
5 (0): Herbicidal activity, Common purslane (common purslane; 0.16 g/are) | Herbicidal activity, Common purslane (common purslane; 0.32 g/are) | Herbicidal activity, Common purslane (common purslane; 0.63 g/are) | Herbicidal activity, Cocklebur (cocklebur; 0.63 g/are)
3 (50-69): Herbicidal activity, Allowhead (arrowhead; 1.25 g/are)
0 (100): Phytotoxicity, Corn (corn [14]; 0.16 g/are) | Phytotoxicity, Corn (corn [14]; 0.32 g/are) | Phytotoxicity, Corn (corn [14]; 0.63 g/are)
3 (11-20): Herbicidal activity, Tall morningglory (tall morningglory [15]; 0.32 g/are)
5 (90-100): Herbicidal activity, Allowhead (arrowhead; 5 g/are) | Herbicidal activity, Broad-leaved weed (broad-leaved weed; 1.25 g/are) | Herbicidal activity, Broad-leaved weed (broad-leaved weed; 2.5 g/are) | Herbicidal activity, Broad-leaved weed (broad-leaved weed; 5 g/are) | Herbicidal activity, Slender spikerush (slender spikerush; 2.5 g/are) | Herbicidal activity, Slender spikerush (slender spikerush; 5 g/are) | Herbicidal activity, Barnyardgrass (barnyardgrass [16]; 2.5 g/are) | Herbicidal activity, Barnyardgrass (barnyardgrass [16]; 5 g/are) | Herbicidal activity, Monochoria (monochoria; 1.25 g/are) | Herbicidal activity, Monochoria (monochoria; 2.5 g/are) | Herbicidal activity, Monochoria (monochoria; 5 g/are)
2 (21-40): Herbicidal activity, Tall morningglory (tall morningglory [15]; 0.16 g/are)
4 (1-10): Herbicidal activity, Tall morningglory (tall morningglory [15]; 0.63 g/are) | Herbicidal activity, Cocklebur (cocklebur; 0.16 g/are) | Herbicidal activity, Cocklebur (cocklebur; 0.32 g/are)
0 (0-9): Phytotoxicity, Rice plant (rice plant; 1.25 g/are) | Phytotoxicity, Rice plant (rice plant; 2.5 g/are) | Phytotoxicity, Rice plant (rice plant; 5 g/are)
